# Data as given in patent publication US20260184693A1, “INHIBITORS OF SOLUTE CARRIER FAMILY 6A MEMBER 19 (SLC6A19) AND METHODS OF USE THEREOF” (Maze Therapeutics, Inc., priority 2022, published 2026).
# Molecular target: T1, human SLC6A19 (Homo sapiens, UniProt Q695T7)
# T1 construct: expressed in transfected cells
# T1 sequence (Q695T7 1-634): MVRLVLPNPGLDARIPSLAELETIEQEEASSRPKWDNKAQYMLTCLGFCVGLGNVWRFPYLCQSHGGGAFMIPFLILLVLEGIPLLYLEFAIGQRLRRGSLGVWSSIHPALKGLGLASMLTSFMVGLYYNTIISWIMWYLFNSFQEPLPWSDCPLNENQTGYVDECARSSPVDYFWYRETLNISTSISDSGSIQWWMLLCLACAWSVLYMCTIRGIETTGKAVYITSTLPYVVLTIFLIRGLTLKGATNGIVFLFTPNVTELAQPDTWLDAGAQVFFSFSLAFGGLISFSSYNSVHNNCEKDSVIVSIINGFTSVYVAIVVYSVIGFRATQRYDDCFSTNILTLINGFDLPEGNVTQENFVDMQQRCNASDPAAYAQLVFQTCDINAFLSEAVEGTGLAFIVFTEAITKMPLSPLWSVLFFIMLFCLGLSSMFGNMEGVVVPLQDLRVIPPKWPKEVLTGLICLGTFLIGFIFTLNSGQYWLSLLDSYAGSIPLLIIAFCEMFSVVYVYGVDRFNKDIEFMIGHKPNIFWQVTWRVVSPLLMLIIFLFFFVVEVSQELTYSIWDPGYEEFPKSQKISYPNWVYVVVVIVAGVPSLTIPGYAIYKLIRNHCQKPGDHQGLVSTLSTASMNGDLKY
# T1 sequence (Q9HBJ8 15-222 partner): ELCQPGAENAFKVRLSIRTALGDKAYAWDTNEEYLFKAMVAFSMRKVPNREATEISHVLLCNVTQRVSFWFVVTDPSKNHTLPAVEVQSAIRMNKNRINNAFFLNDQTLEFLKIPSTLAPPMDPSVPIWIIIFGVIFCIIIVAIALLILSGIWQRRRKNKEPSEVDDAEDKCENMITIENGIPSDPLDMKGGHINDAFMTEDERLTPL
# Assay: Example B2: 13C6,15N-isoleucine uptake, RapidFire mass spectrometry, in CHO cells with doxycycline-inducible expression of human SLC6A19 and TMEM27
# Type: cell-based
# Conditions: read-out: SLC6A19_RapidFire Uptake Assay IC50
# Experimental: Assay ready vials of CHO cells with doxycycline inducible expression of human SLC6A19 and TMEM27 were thawed, plated in T175 flasks containing DMEM/F12 media, 10% FBS, 100 Penicillin-Streptomycin, 1× UltraGlutamate, 1 mM Sodium Pyruvate, Sodium Bicarbonate (7.5 mL of 7.5% solution in 500 mL media final), […] Blasticidin, 150 µg/mL Hygromycin B Gold, and 500 µg/mL G418, and incubated (humidified, 37° C. with […]) for 48 hours. Media was then removed, flasks were washed with 20 mL of DPBS, and 5 mL of TryμLE™ Express was added to each flask to initiate cell dissociation. After 5 minutes, 10 mL of cell culture media was added to each flask and mixed. The cell suspension was collected and centrifuged for 5 minutes at 200×g. The supernatant was removed, and the pellet was resuspended in 10 mL of cell culture media. Resuspended cells were counted using a Vi-Cell. 30 μL/well (20,000 cells/well) of cell suspension was added to Poly-D-Lysine 384-well black/clear plates. Plates were incubated (humidified, 37° C. with 5% CO2) for 24 hours. To induce expression of human SLC6A19 and TMEM27, 10 μL of assay culture media containing 4 μg/mL doxycycline was added to each well. Assay plates were then incubated (humidified, 37° C. with 5% CO2) overnight. After incubation, the media was removed, and wells were washed 3 times with 40 μL of warmed DPBS. […] All compounds were plated in a duplicate 10-point dilution series that consisted of 2-fold dilutions. The plates were incubated (humidified, 37° C. with 5% CO2) with compound for 20 minutes. Afterwards, 20 μL/well of 2 mM 13C6,15N-1-isoleucine was added to each well and plates were incubated again (humidified, 37° C. with 5% CO2) for another 20 minutes. Assay buffer was then removed, and plates were washed. 70 μL/well of stop solution (75% acetonitrile, 25% HPLC grade water, 250 nM 1-leucine-1-13 C (RapidFire standard)) was added to each well. The plates were sealed and then placed in a −20° C. freezer for 20 minutes. The plates were thawed at room temperature for 20 minutes and then centrifuge for 20 minutes at 3000 rpm. Using an ABSciex API4000 mass spectrometer, processed samples were loaded onto the graphitic carbon SPE-column. The time for aspiration, load/wash, elution and re-equilibration time was 600, 1500, 3000 and 500 milliseconds, respectively. Peak areas were calculated using RapidFire Integrator software.
row,IC50 [nM],SMILES
1,8640,"CN(C(=O)NCc1cc2cc(Cl)ccc2[nH]1)[C@@H]1CCCN(C(=O)C2(C(F)(F)F)CC2)C1 [Compound 57, (R)-3-((5-chloro-1H-indol-2-yl)methyl)-1-methyl-1-(1-(1-(trifluoromethyl)cyclopropane-1-carbonyl)piperidin-3-yl)urea]"
2,6570,"Cc1cc(C(=O)N2CCC[C@@H](N(C)C(=O)NCc3cc4cc(Cl)ccc4[nH]3)C2)n(C)n1 [Compound 77, (R)-3-((5-chloro-1H-indol-2-yl)methyl)-1-(1-(1,3-dimethyl-1H-pyrazole-5-carbonyl)piperidin-3-yl)-1-methylurea]"
3,209,"CC(=O)N1CCC[C@@H](N(C)C(=O)NCc2cc3cc(Cl)c(C)cc3[nH]2)C1 [Compound 226, (R)-1-(1-acetylpiperidin-3-yl)-3-((5-chloro-6-methyl-1H-indol-2-yl)methyl)-1-methylurea]"
4,854,"Cc1cc(C(=O)N2CCC[C@@H](N(C)C(=O)NCc3cc4cc(Cl)ccc4[nH]3)C2)[nH]n1 [Compound 41, (R)-3-((5-chloro-1H-indol-2-yl)methyl)-1-methyl-1-(1-(3-methyl-1H-pyrazole-5-carbonyl)piperidin-3-yl)urea]"
5,578,"CN(C(=O)NCc1cc2cc(Cl)ccc2[nH]1)[C@@H]1CCCN(C(=O)c2ccon2)C1 [Compound 5, (R)-3-((5-chloro-1H-indol-2-yl)methyl)-1-(1-(isoxazole-3-carbonyl)piperidin-3-yl)-1-methylurea]"
6,5630,"COC(C)(C)C(=O)N1CCC[C@@H](N(C)C(=O)NCc2cc3cc(Cl)ccc3[nH]2)C1 [Compound 79, (R)-3-((5-chloro-1H-indol-2-yl)methyl)-1-(1-(2-methoxy-2-methylpropanoyl)piperidin-3-yl)-1-methylurea]"
7,1310,"Cc1cc(COc2ccc3cc(CNC(=O)N(C)[C@@H]4CCCN(c5cccnn5)C4)[nH]c3c2)no1 [Compound 142, (R)-1-methyl-3-((6-((5-methylisoxazol-3-yl)methoxy)-1H-indol-2-yl)methyl)-1-(1-(pyridazin-3-yl)piperidin-3-yl)urea]"
8,1090,"CC(=O)N1CCC[C@@H](N(C)C(=O)NCc2cc3ccc(OCc4cc(C)on4)cc3[nH]2)C1 [Compound 143, (R)-1-(1-acetylpiperidin-3-yl)-1-methyl-3-((6-((5-methylisoxazol-3-yl)methoxy)-1H-indol-2-yl)methyl)urea]"
9,5840,"CN(C(=O)NCc1cc2cc(Cl)ccc2[nH]1)[C@@H]1CCCN(C(=O)c2ccnnc2)C1 [Compound 23, (R)-3-((5-chloro-1H-indol-2-yl)methyl)-1-methyl-1-(1-(pyridazine-4-carbonyl)piperidin-3-yl)urea]"
10,1760,"COc1ccc(C(=O)N2CCC[C@@H](N(C)C(=O)NCc3cc4cc(Cl)ccc4[nH]3)C2)nc1 [Compound 78, (R)-3-((5-chloro-1H-indol-2-yl)methyl)-1-(1-(5-methoxypicolinoyl)piperidin-3-yl)-1-methylurea]"
11,4800,"CN(C(=O)NCc1cc2cc(Cl)ccc2[nH]1)[C@@H]1CCCN(C(=O)c2ccnn2C)C1 [Compound 51, (R)-3-((5-chloro-1H-indol-2-yl)methyl)-1-methyl-1-(1-(1-methyl-1H-pyrazole-5-carbonyl)piperidin-3-yl)urea]"
12,2280,CN(C(=O)NCc1cc2cc(Cl)ccc2[nH]1)[C@@H]1CCCN(C(=O)[C@H]2CC[C@H](O)CC2)C1 [Compound 108]
13,2750,"CN(C(=O)NCc1cc2cc(Cl)ccc2[nH]1)[C@@H]1CCCN(C(=O)CN2CCCC2=O)C1 [Compound 94, (R)-3-((5-chloro-1H-indol-2-yl)methyl)-1-methyl-1-(1-(2-(2-oxopyrrolidin-1-yl)acetyl)piperidin-3-yl)urea]"
14,359,"CN(C(=O)NCc1cc2cc(Cl)ccc2[nH]1)[C@@H]1CCCN(C(=O)CC#N)C1 [Compound 3, (R)-3-((5-chloro-1H-indol-2-yl)methyl)-1-(1-(2-cyanoacetyl)piperidin-3-yl)-1-methylurea]"
15,4080,"CC(=O)NC(C)C(=O)N1CCC[C@@H](N(C)C(=O)NCc2cc3cc(Cl)ccc3[nH]2)C1 (stereo partly drawn) [Compound 88, N-(1-((R)-3-(3-((5-chloro-1H-indol-2-yl)methyl)-1-methylureido)piperidin-1-yl)-1-oxopropan-2-yl)acetamide]"
16,171,"CCc1cc2[nH]c(CNC(=O)N(C)[C@@H]3CCCN(C(C)=O)C3)cc2cc1Cl [Compound 152, (R)-1-(1-acetylpiperidin-3-yl)-3-((5-chloro-6-ethyl-1H-indol-2-yl)methyl)-1-methylurea]"
17,20900,"CC(=O)N1CCC[C@@H](N(C)C(=O)NCc2cc3cc(C)cc(CO)c3[nH]2)C1 [Compound 175, (R)-1-(1-acetylpiperidin-3-yl)-3-((7-(hydroxymethyl)-5-methyl-1H-indol-2-yl)methyl)-1-methylurea]"
18,8990,"COCC1(C(=O)N2CCC[C@@H](N(C)C(=O)NCc3cc4cc(Cl)ccc4[nH]3)C2)CC1 [Compound 92, (R)-3-((5-chloro-1H-indol-2-yl)methyl)-1-(1-(1-(methoxymethyl)cyclopropane-1-carbonyl)piperidin-3-yl)-1-methylurea]"
19,517,"CCN(C(=O)NCc1cc2ccc(OCc3ccon3)cc2[nH]1)[C@@H]1CCCN(C(C)=O)C1 [Compound 139, (R)-1-(1-acetylpiperidin-3-yl)-1-ethyl-3-((6-(isoxazol-3-ylmethoxy)-1H-indol-2-yl)methyl)urea]"
20,179,"CC(=O)N1CCC[C@@H](N(C)C(=O)NCc2cc3cc(Cl)c(F)cc3[nH]2)C1 [Compound 159, (R)-1-(1-acetylpiperidin-3-yl)-3-((5-chloro-6-fluoro-1H-indol-2-yl)methyl)-1-methylurea]"
21,5250,"CCC(O)C(=O)N1CCC[C@@H](N(C)C(=O)NCc2cc3cc(Cl)ccc3[nH]2)C1 (stereo partly drawn) [Compound 40, 3-((5-chloro-1H-indol-2-yl)methyl)-1-((3R)-1-(2-hydroxybutanoyl)piperidin-3-yl)-1-methylurea]"
22,559,"CN(C(=O)NCc1cc2cc(Cl)ccc2[nH]1)[C@@H]1CCCN(C(=O)Cc2cnn(C)c2)C1 [Compound 86, (R)-3-((5-chloro-1H-indol-2-yl)methyl)-1-methyl-1-(1-(2-(1-methyl-1H-pyrazol-4-yl)acetyl)piperidin-3-yl)urea]"
23,1240,"CN(C(=O)NCc1cc2cc(Cl)ccc2[nH]1)[C@@H]1CCCN(C(=O)c2cccc(F)c2F)C1 [Compound 42, (R)-3-((5-chloro-1H-indol-2-yl)methyl)-1-(1-(2,3-difluorobenzoyl)piperidin-3-yl)-1-methylurea]"
24,2460,"CN(C(=O)NCc1cc2cc(Cl)ccc2[nH]1)[C@@H]1CCCN(C(=O)c2cc(CO)on2)C1 [Compound 47, (R)-3-((5-chloro-1H-indol-2-yl)methyl)-1-(1-(5-(hydroxymethyl)isoxazole-3-carbonyl)piperidin-3-yl)-1-methylurea]"
25,553,"CN(C(=O)NCc1cc2ccccc2[nH]1)[C@@H]1CCCN(c2cccnn2)C1 [Compound 146, (R)-3-((1H-indol-2-yl)methyl)-1-methyl-1-(1-(pyridazin-3-yl)piperidin-3-yl)urea]"
26,1650,"COc1ccc2[nH]c(CNC(=O)N(C)[C@@H]3CCCN(C(C)=O)C3)cc2c1 [Compound 224, (R)-1-(1-acetylpiperidin-3-yl)-3-((5-methoxy-1H-indol-2-yl)methyl)-1-methylurea]"
